These results are taken from the Deep4Chem optical property database.

A short description of the series: solvent given as SMILES.

For the molecule `O=Cc1cnc(-c2c3ccccc3cc3ccccc23)nc1`, the emission maximum by setting is: (in CCO) 438 nm; (in ClCCl) 531 nm.

Regarding `C(#Cc1cc2ccc3cccc4ccc(c1)c2c34)c1ccccc1`, for the setting “in Cc1ccccc1”, the emission maximum stood at 399 nm.

Regarding `CCN(CC)c1ccc2cc(/C=C/C(=C(C#N)C#N)c3ccc4c(c3)c3ccccc3n4CC)c(=O)oc2c1`, the emission maximum reads like this: (in CC(C)=O) 614 nm; (in CCOC(C)=O) 590 nm; (in CN(C)C=O) 629 nm; (in CS(C)=O) 638 nm; (in Cc1ccccc1) 571 nm; (in ClCCl) 604 nm.

In the case of `c1ccc2cc3c(cc2c1)-c1cccc2c1c-3cc1ccccc12`, the emission maximum (in CCCCCCC) is 401 nm.

In turn, `O=c1c2cc3[nH]c4c(S(=O)(=O)O)cc(S(=O)(=O)O)cc4c(=O)c3cc2[nH]c2c(S(=O)(=O)O)cc(S(=O)(=O)O)cc12` yielded an emission maximum (in O) of 550 nm.

In the case of `CCN(CC)c1ccc2cc(-c3nc4cc(C(=O)Nc5ccc(C)cc5[N+](=O)[O-])ccc4o3)c(=O)oc2c1`, the emission maximum (in ClCCl) stood at 496 nm.

For the molecule `CC(C)(C)c1ccc(C2=CC3=C(c4ccccc4)c4cc(-c5ccc(C(C)(C)C)cc5)c(-c5ccc(C(C)(C)C)cc5)n4[B-](F)(F)[N+]3=C2c2ccc(C(C)(C)C)cc2)cc1`, the emission maximum is recorded as 643 nm (in C1CCCCC1); 649 nm (in C1CCOC1); 647 nm (in CC#N); 649 nm (in Cc1ccccc1); 649 nm (in ClCCl).

In the case of `Cc1ccc(C)cc1`, the emission maximum (in C1CCCCC1) was 292.06 nm.

With `CC(C)[Si](C#Cc1c2cc3ccccc3cc2c(C#C[Si](C(C)C)(C(C)C)C(C)C)c2nc3cc4c(cc3nc12)C1c2ccccc2C4c2ccccc21)(C(C)C)C(C)C`, the emission maximum reads like this: (in CCCCCC) 682 nm; (in ClCCl) 718 nm.

As to `Cc1cc(C2(c3cc(C)c(O)c(Br)c3)OS(=O)(=O)c3ccccc32)cc(Br)c1O`, the emission maximum by setting is: (in C1CCOC1) 492 nm; (in C1COCCO1) 450 nm; (in CC#N) 497 nm; (in CC(C)(C)O) 473 nm; (in CC(C)=O) 490 nm; (in CC(C)O) 498 nm. The emission maximum by setting is: (in CCCCCO) 485 nm; (in CCCO) 505 nm; (in CCO) 507 nm; (in CCOC(C)=O) 478 nm; (in CCOCC) 476 nm; (in CO) 502 nm.

Regarding `CN(C)c1cccc2c1C(=O)c1ccccc1C2=O`, the emission maximum was 566 nm (in C1CCCCC1); 566.5 nm (in CC1CCCCC1); 593 nm (in CC#N); 566 nm (in CCC(C)CC); 566.2 nm (in CCCCCC); 585 nm (in CCOC(C)=O).

On to `CCCCC1(c2ccc(OC)cc2)Nc2ccccc2N=C1c1ccc(OC)cc1` (stereo not drawn), for which the emission maximum (in C1CCOC1) is recorded as 513 nm; the emission maximum (in CC#N) amounted to 522 nm; the emission maximum (in CCCCCC) turned out to be 485 nm; the emission maximum (in CN(C)C=O) is 525 nm; the emission maximum (in Cc1ccccc1) came to 501 nm; the emission maximum (in ClC(Cl)Cl) was 507 nm.

Regarding `CCCCc1ccc2c(c1)c1ccc3cccc4c3c1c1c2c2cccc3ccc5c6cc(CCCC)ccc6c4c1c5c32`, the emission maximum (in ClCCl) is 506 nm.

`OCc1cc2c(cc3ccc4cccc5ccc2c3c45)[nH]1` displayed an emission maximum (in CCOC(C)=O) of 404 nm.

Consider `CC(C)(C)c1ccc(N(c2ccc(C(C)(C)C)cc2)c2cc(N(c3ccc(C(C)(C)C)cc3)c3ccc(C(C)(C)C)cc3)c3ccc4cc(C(C)(C)C)cc5ccc2c3c54)cc1`, for which, under “in ClCCl”, the emission maximum was 491 nm.

Consider `CC1=CC(C)=[N+]2C1=C(c1ccc(N3CCOCC3)cc1)c1c(C)cc(C)n1[B-]2(F)F`, for which the emission maximum runs as follows: (in C1CCOC1) 514 nm; (in CC#N) 511 nm; (in CC(=O)C(C)(C)C) 520 nm; (in CC(C)=O) 516 nm; (in CCCCCC) 511 nm; (in CCOC(C)=O) 517 nm. For the setting “in CO”, this molecule registered an emission maximum of 514 nm.

As to `CCCSc1ccc2n1[B-](F)(F)[N+]1=CC=CC1=C2c1ccccc1`, the emission maximum by setting is: (in CC#N) 585 nm; (in CCCCCC) 588 nm; (in CCOC(C)=O) 589 nm; (in CO) 583 nm; (in ClCCl) 594 nm.

In turn, `O=C1c2ccccc2C2=Nc3cccc4cccc(c34)N12` registered an emission maximum (in ClCCl) of 596 nm.

In the case of `Cc1ccc(-n2c(C)ccc2C)cc1`, the emission maximum is listed as 409 nm (in CC#N) and 337 nm (in CCCCCC).

The molecule `COC(=O)C1=C(C(=O)OC)C2(c3ccccc3-c3c(Br)cc(Br)cc32)C2(/C=C/c3ccc(Cl)cc3)c3cc(OC)c(OC)cc3CCN12` (stereo not drawn) registered an emission maximum (in ClCCl) of 520 nm.

With `CC1(C)CC(=O)c2cc(F)c(F)cc2N1`, the emission maximum (in CC#N) was determined as 435 nm and the emission maximum (in CCO) was determined as 472 nm.

Turning to `CCCCCCCCCCCCc1sc(CCCCCCCCCCCC)c2c3ccsc3c3sccc3c12`, the emission maximum (in ClC(Cl)Cl) came to 425 nm.

As for `COc1ccc(C2=CC(c3ccccc3)=[N+]3C2=Nc2c(-c4ccc(OC)cc4)cc(-c4ccccc4)n2[B-]3(F)F)cc1`, the emission maximum (in Cc1ccccc1) was 697 nm and the emission maximum (in ClC(Cl)Cl) is listed as 695 nm.

As for `CCOC(=O)c1c(-c2c(Cl)c3ccccc3oc2=O)nn(-c2ccc(Br)cc2)c1C(=O)OCC`, the emission maximum (in ClCCl) is on record as 406 nm.

Under “in ClCCl”, `COc1ccc(-c2c3cc4ccccc4cc3c(-c3ccc(OC)cc3)c3cc4ccccc4cc23)cc1` returned an emission maximum of 620 nm.

As to `Cc1cc(=O)oc2cc(O)ccc12`, the emission maximum (in CCO) came out at 380 nm.

In the case of `O=C1O[B-]2(OC1=O)OC(c1ccc3ccccc3c1)=CC(c1ccc3ccccc3c1)=[O+]2`, the emission maximum runs as follows: (in CC#N) 550 nm; (in ClC(Cl)(Cl)Cl) 451 nm.

Regarding `CCCCn1c2c(-c3ccc(N(c4ccccc4)c4ccccc4)cc3)cc(C#N)cc2c2cc(C#N)cc(-c3ccc(N(c4ccccc4)c4ccccc4)cc3)c21`, the emission maximum amounted to 404 nm (in C1CCCCC1); 449 nm (in C1CCOC1); 476 nm (in CC#N); 419 nm (in CCCCOCCCC); 415 nm (in CCN(CC)CC); 443 nm (in CCOC(C)=O). For the same molecule, the emission maximum by setting is: (in CCOCC) 430 nm; (in CN(C)C=O) 476 nm; (in Cc1ccccc1) 415 nm; (in ClC=C(Cl)Cl) 424 nm; (in ClCCl) 452 nm.

The molecule `COc1ccc(-c2cc(-c3ccc(C(F)(F)F)cc3)nn2C)cc1` returned an emission maximum (in ClCCl) of 367 nm.

`C#Cc1ccc2ccc3oc(=O)cc(C)c3c2c1` yielded an emission maximum (in CCO) of 403 nm.

`COC(=O)C([NH3+])Cc1ccc2oc(-c3ccncc3)nc2c1` (stereo not drawn): the emission maximum is, setting by setting: (in CC1CCCCC1) 356.11 nm; (in CC#N) 367.92 nm; (in CO) 379.88 nm; (in O) 402.82 nm.

With `F[B-]1(F)OC(c2ccccc2)=Cc2ccc3ccccc3[n+]21`, the emission maximum amounted to 438 nm (in ClC(Cl)Cl) and 441 nm (in ClCCl).

`F[B-]1(F)n2c(/C=C/c3ccc(C(=C(c4ccccc4)c4ccccc4)c4ccccc4)cc3)ccc2C(c2ccccc2)=C2C=CC(/C=C/c3ccc(C(=C(c4ccccc4)c4ccccc4)c4ccccc4)cc3)=[N+]21` displayed an emission maximum (in C1CCOC1) of 690 nm.
